Measurements reported in article PMC3458734, “Partial thioamide scan on the lipopeptaibiotic trichogin GA IV. Effects on folding and bioactivity” (Beilstein Journal of Organic Chemistry, 2012).

Tests used:
[1] = system: Staphylococcus aureus ATCC 25923; experiment: Antibacterial activity, disk diffusion Bauer-Kirby method; assay type: cell-based; details: Müller-Hinton medium pH 7.2-7.4
Experimental: (§1) The antimicrobial activities were assessed on a large set of Gram-positive and Gram-negative bacterial strains. […] Peptide antibacterial activity was tested against Gram-positive and Gram-negative bacteria by the standardized disk diffusion Bauer-Kirby method using the Müller-Hinton culture medium at pH 7.2-7.4 as recommended by the National Committee for Clinical Laboratory Standards. The antibacterial activity assay was performed in a similar way to that described in reference. The activity of peptides was tested against clinical isolates of bacteria and reference bacterial strains: Staphylococcus aureus American Type Culture Collection strains (ATCC) 25923, Streptococcus pyogenes ATCC 19615, Escherichia coli ATCC 25922, Pseudomonas aeruginosa ATCC 27853, Klebsiella pneumoniae ATCC 13883, Salmonella entereditis 13076, and Proteus mirabilis ATCC 10975. The well-known antibiotics bacitracin and tetracyclin (10 μg/disk) were used as controls.

[2] = system: Streptococcus pyogenes ATCC 19615; experiment: as above; assay type: cell-based; details: Müller-Hinton medium pH 7.2-7.4
Experimental: as §1

Q: What does the source list for [Leu^11-OMe] trichogin GA IV?
A: antimicrobial activity on Staphylococcus aureus [1]: active; antimicrobial activity on Streptococcus pyrogenes [2]: active
